For 16 compounds, GI50 and IC50 results are on record in patent US20090163490A1, “Pyrrolopyrimidine Derivatives Used As HSP90 Inhibitors” (VERNALIS (R&D) LTD., priority 2006, published 2009).

The subject of assay [1] is BT474 cells. Put plainly: Sulforhodamine B (SRB) growth inhibition assay. In kind it is cell-based. Conditions: Homo sapiens, BT-474, activity range. How it is done:
A growth inhibition assay was also employed for the evaluation of test compounds:
Assessment of Cytotoxicity by Sulforhodamine B (SRB) Assay: Calculation of 50% Inhibitory Concentration (IC50).
• 1) Determine cell number by haemocytometer. • 2) Using an 8 channel multipipettor, add 160 μl of the cell suspension (3600 cells/well or 2×10^4 cells/ml) to each well of a 96-well microtitre plate. • 3) Incubate overnight at 37° C. in a CO2 incubator.
• 4) Stock solutions of drugs are prepared, and serial dilutions of each drug are performed in medium to give final concentrations in wells. • 5) Using a multipipettor, 40 μl of drug (at 5× final concentration) is added to quadruplicate wells. • 6) Control wells are at either side of the 96 well plates, where 40 μl of medium is added. • 7) Incubate plates in CO2 incubator for […].
• 8) Tip off medium into sink and immerse plate slowly into 10% ice cold trichloroacetic acid (TCA). Leave for about 30 mins on ice. • 9) Wash plates three times in tap water by immersing the plates into baths of tap water and tipping it off. • 10) Dry in incubator. • 11) Add 100 μl of 0.4% SRB in 1% acetic acid to each well (except the last row (right hand) of the 96 well plate, this is the 0% control, ie no drug, no stain. The first row will be the 100% control with no drug, but with stain). Leave for 15 mins. • 12) Wash off unbound SRB stain with four washes of 1% acetic acid. • 13) Dry plates in incubator. • 14) Solubilised SRB using […] of 10 mM Tris base and put plates on plate shaker for 5 mins. • 15) Determine absorbance at 540 nm using a plate reader. Calculate mean absorbance for quadruplicate wells and express as a percentage of value for control, untreated wells. • 16) Plot % absorbance values versus log drug concentration and determine the GI50., ie the concentration of test compound required to inhibit growth of the cells by 50%.
The compounds tested in the above assay were assigned to one of three activity ranges, namely A=<0.5 μM; B=0.5 μM to 10 μM; C=>10 μM, and the results for six of the compounds of the invention are reported in Table 2.

Assay [2] deals with T1, human full-length HSP90 (Homo sapiens, UniProt P08238).
T1 construct: E. coli expressed human full-length HSP90 protein, purified >95%; made in house; host or cells: E. coli
Put plainly: Fluorescence polarization (FP) binding assay. The settings on record: competitive displacement of fluorescein-labelled probe from human full-length HSP90, activity range. An excerpt: Fluorescence Polarization Assay
Fluorescence polarization {also known as fluorescence anisotropy} measures the rotation of a fluorescing species in solution, where the larger molecule the more polarized the fluorescence emission. When the fluorophore is excited with polarized light, the emitted light is also polarized. The molecular size is proportional to the polarization of the fluorescence emission.
The fluoroscein-labelled probe—
binds to HSP90 {full-length human, full-length yeast or N-terminal domain HSP90} and the anisotropy {rotation of the probe:protein complex} is measured.
Test compound is added to the assay plate, left to equilibrate and the anisotropy measured again. Any change in anisotropy is due to competitive binding of compound to HSP90, thereby releasing probe.
Stored at room temperature. • 3) BSA (bovine serum albumen) 10 mg/ml (New England Biolabs # B9001S) • 4) 20 mM probe in 100% DMSO stock concentration. Stored in the dark at RT. Working concentration is 200 nM diluted in AR water and stored at 4° C.
• 1) Add 100 μl×buffer to wells 1A and 12A(=FP BLNK) • 2) Prepare assay mix—all reagents are kept on ice with a lid on the bucket as the probe is light-sensitive.
• 3) Aliquot 100 μl assay mix to all other wells • 4) Seal plate and leave in dark at room temp for 20 minutes to equilibrate
This gives 2.5 mM {50×} stock cpd−assuming cpds 20 mM. • 4) Repeat for wells A2 to A10. Control in columns 11 and 12. • 5) Transfer 5 μl from row A to row B—not column 12. Mix well. • 6) Transfer 5 μl from row B to row C. […] Add 2 μl of 100 mM standard cpd to wells B12-H12 {is positive control} • 13) The Z′ factor is calculated from zero controls and positive wells.
On the technique in general: Polarisation of emitted light reports the rotation of a fluorescent probe.

[3] abbreviates: read-out: activity in the fluorescence polarization assay.
The mark [4] stands for this setting: read-out: ACTIVITY* (Activity in the FP binding assay).

Like-named read-outs stand apart in the source and are kept apart here.

T1 sequence (P08238 whole entry): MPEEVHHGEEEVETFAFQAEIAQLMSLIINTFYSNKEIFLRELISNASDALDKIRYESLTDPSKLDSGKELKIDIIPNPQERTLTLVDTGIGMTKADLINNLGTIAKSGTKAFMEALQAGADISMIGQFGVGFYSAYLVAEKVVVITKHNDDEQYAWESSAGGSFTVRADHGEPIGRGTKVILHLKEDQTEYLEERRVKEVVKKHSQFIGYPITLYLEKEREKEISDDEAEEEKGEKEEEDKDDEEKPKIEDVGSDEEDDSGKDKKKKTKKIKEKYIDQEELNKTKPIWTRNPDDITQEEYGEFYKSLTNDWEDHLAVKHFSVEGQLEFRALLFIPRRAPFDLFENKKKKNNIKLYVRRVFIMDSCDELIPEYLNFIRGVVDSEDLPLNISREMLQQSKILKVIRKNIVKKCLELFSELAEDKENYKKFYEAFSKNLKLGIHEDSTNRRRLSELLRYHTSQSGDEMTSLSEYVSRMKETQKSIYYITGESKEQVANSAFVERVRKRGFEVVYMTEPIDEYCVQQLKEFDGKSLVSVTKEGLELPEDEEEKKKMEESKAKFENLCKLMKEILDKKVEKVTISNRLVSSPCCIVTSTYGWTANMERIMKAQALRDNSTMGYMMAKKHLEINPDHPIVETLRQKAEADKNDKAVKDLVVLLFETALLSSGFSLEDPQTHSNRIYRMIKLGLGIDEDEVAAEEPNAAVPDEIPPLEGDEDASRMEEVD

On to `COc1cc(Cl)c(-c2nc(OCCN3CCC(F)(F)CC3)nc3[nH]cc(C#N)c23)cc1OC` [Example 31, 4-(2-Chloro-4,5-dimethoxy-phenyl)-2-[2-(4,4-difluoro-piperidin-1-yl)-ethoxy]-7H-pyrrolo[2,3-d]pyrimidine-5-carbonitrile], for which the 50% growth inhibitory concentration (GI50) in assay [1] is less than 500 nM. For the same compound, the IC50 in assay [2] (setting [3]) is less than 500 nM. As to `CCN(CC)CCOc1nc(-c2cc(OC)c(Cl)cc2Cl)c2c(C#N)c[nH]c2n1` [Example 24, 4-(2,4-Dichloro-5-methoxy-phenyl)-2-(2-diethylamino-ethoxy)-7H-pyrrolo[2,3-d]pyrimidine-5-carbonitrile], the 50% growth inhibitory concentration (GI50) in assay [1] is 500 to 10000 nM. Moreover, the IC50 in assay [2] (setting [3]) is less than 500 nM.

Compound `CCN(CC)CCSc1nc(-c2ccc(F)cc2C)c2c(C#N)c[nH]c2n1` [Example 19, 2-(2-Diethylamino-ethylsulfanyl)-4-(4-fluoro-2-methyl-phenyl)-7H-pyrrolo[2,3-d]pyrimidine-5-carbonitrile] displayed a GI50 in assay [1] of 500 to 10000 nM. Further, the IC50 in assay [2] (setting [3]) was less than 500 nM. In assay [1], `COc1cc(Cl)c(-c2nc(SC)nc3[nH]cc(C#N)c23)cc1OCCN1CC[C@@H](F)C1` [Example 72] registered a GI50 of less than 500 nM. Moreover, in assay [2] (setting [4]), the IC50 was less than 500 nM. Compound `CC(C)Sc1nc(-c2cc(OCc3ccccc3)c(Cl)cc2Cl)c2c(C#N)c[nH]c2n1` [Example 51] displayed a GI50 in assay [1] of 500 to 10000 nM. Further, in assay [2] (setting [4]), the IC50 lay within 500 to 10000 nM. Regarding `COc1ccc(-c2nc(OCCN3CCC(F)(F)CC3)nc3[nH]cc(C#N)c23)cc1OC` [Example 32, 4-(4,5-Dimethoxy-phenyl)-2-[2-(4,4-difluoro-piperidin-1-yl)-ethoxy]-7H-pyrrolo[2,3-d]pyrimidine-5-carbonitrile], the IC50 in assay [2] (setting [3]) was less than 500 nM. The same measure, in the same setting: next, `Cc1cc(F)ccc1-c1nc(OCCN2CCOCC2)nc2[nH]cc(C#N)c12` [Example 14, 4-(4-Fluoro-2-methyl-phenyl)-2-(2-morpholin-4-yl-ethoxy)-7H-pyrrolo[2,3-d]pyrimidine-5-carbonitrile]: 500 to 10000 nM. For the compound `CCN(CC)CCOc1cc(-c2nc(SCC(=O)NC)nc3[nH]cc(C#N)c23)c(Cl)cc1Cl` [Example 28, 2-{5-Cyano-4-[2,4-dichloro-5-(2-diethylamino-ethoxy)-phenyl]-7H-pyrrolo[2,3-d]pyrimidin-2-ylsulfanyl}-N-methyl-acetamide], the GI50 in assay [1] was less than 500 nM. The IC50 in assay [2] (setting [3]) is less than 500 nM. Regarding `COc1cc(Cl)c(-c2nc(SC(C)C)nc3[nH]cc(C#N)c23)cc1OCCN1CCC(F)(F)C1` [Example 75], the IC50 in assay [2] (setting [4]) was less than 500 nM. With `CSc1nc(-c2ccc(C#N)cc2)c2c(C#N)c[nH]c2n1` [Example 3, 4-(4-cyano-phenyl)-2-methylsulfanyl-7H-pyrrolo[2,3-d]pyrimidine-5-carbonitrile], the IC50 in assay [2] (setting [3]) was less than 500 nM. Turning to `CSc1nc(-c2ccc(Cl)cc2Cl)c2c(C#N)c[nH]c2n1` [Example 41, 4-(Dichloro-phenyl)-2-methylsulfanyl-7H-pyrrolo[2,3-d]pyrimidine-5-carbonitrile], in assay [2] (setting [3]), the IC50 was less than 500 nM. As for `COc1cc(Cl)c(-c2nc(SC(C)C(=O)O)nc3[nH]cc(C#N)c23)cc1OCCN1CCC(F)(F)C1` (stereo not shown) [Example 89], the IC50 in assay [2] (setting [4]) was less than 500 nM. In the case of `COc1cc(Cl)c(-c2nc([S+](C)[O-])nc3[nH]cc(C#N)c23)cc1OC` (stereo not shown) [Example 47], the IC50 in assay [2] (setting [3]) was 500 to 10000 nM. Consider `CCc1nc(-c2ccc(F)cc2C)c2c(C#N)c[nH]c2n1` [Example 18, 2-Ethyl-4-(4-fluoro-2-methyl-phenyl)-7H-pyrrolo[2,3-d]pyrimidine-5-carbonitrile], for which, in assay [2] (setting [3]), the IC50 is 500 to 10000 nM. As to `CCN(CC)CCOc1cc(-c2nc(CC(C)C)nc3[nH]cc(C#N)c23)c(Cl)cc1OC` [Example 82], in assay [2] (setting [4]), the IC50 was in the range of 500 to 10000 nM.

Regarding `COc1cc(-c2nc(OCCN3CCCC(F)C3)nc3[nH]cc(C#N)c23)c(Cl)cc1C#N` (stereo not shown) [Example 63], the IC50 in assay [2] (setting [4]) was less than 500 nM.

A word on the GI50: it is the concentration that inhibits growth by half. A higher GI50 goes with less potent growth inhibition.
